Literature values as cited in US8629128B2, “Vitamin formulation” (priority 2005, dated 2014).
Values belong to the compound of their own block, whether it stands above or below them.

Legend:
[1] = system: normal and malignant keratinocytes; conditions: normal and malignant keratinocytes in culture
[2] = oxidizing agents and sunlight

SMILES: C=C1/C(=C\C=C2/CCC[C@]3(C)C([C@H](C)/C=C/[C@@H](O)C4CC4)CC[C@@H]23)C[C@@H](O)C[C@@H]1O (stereo partly drawn) [Calcipotriene, (5Z,7E,22E,24S)-24-cyclopropyl-9,10-secochola-5,7,10(19), 22 tetraene-1α,3β,24-triol]
induction of differentiation of keratinocytes [1]: induces the differentiation
inhibition of proliferation of keratinocytes [1]: inhibits proliferation

SMILES: CC1=C(/C=C/C(C)=C/C=C/C(C)=C/C(=O)O)C(C)(C)CCC1 [Tretinoin, (all-E)-3,7-dimethyl-9-(2,6,6-trimethyl-1-cyclohexen-1-yl)-2,4,6,8-nonatetraenoic acid]
stability of tretinoin [2]: unstable in the presence of oxidizing agents and sunlight

effect on calcium metabolism (calcium metabolism): potent effect on calcium metabolism
SMILES: C=C1/C(=C\C=C2/CCC[C@]3(C)[C@@H]([C@H](C)CCCC(C)(C)O)CC[C@@H]23)C[C@@H](O)C[C@@H]1O [calcitriol, 1,25-dihydroxy Vitamin D3]
